In general, EC50 refers to the concentration that produces a half-maximal response. Lower therefore signals an effect from little substance.

Common to all, as to type: cell-based
Common to all, as to conditions: HEK293 cells co-transfected with PPAR LBD-GAL4 and UAS-luciferase; 18-24 hrs treatment

For assay [1], the target named is T1, PPAR delta (Homo sapiens, UniProt Q03181).
T1 construct: expressed in transfected cells; host or cells: HEK293
T1 sequence (Q03181 211-439 limits assumed): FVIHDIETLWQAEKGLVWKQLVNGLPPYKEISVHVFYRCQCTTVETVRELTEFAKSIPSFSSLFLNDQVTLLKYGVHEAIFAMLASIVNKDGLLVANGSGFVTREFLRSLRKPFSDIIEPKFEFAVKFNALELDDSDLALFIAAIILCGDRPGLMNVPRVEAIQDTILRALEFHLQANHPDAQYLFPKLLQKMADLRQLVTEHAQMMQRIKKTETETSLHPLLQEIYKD
The assay can be described thus: Transfection assay for PPAR receptors (GAL4-LBD luciferase reporter in HEK293 cells), PPAR delta. On the procedure: (§1) Transfection Assay Method for PPAR Receptors
(§2) HEK293 cells were grown in DMEM/F12 medium supplemented with 10% FBS and glutamine (Invitrogen) and incubated in a 5% CO2 incubator at 37° C. The cells were co-transfected using DMRIE-C reagent (Invitrogen) in serum free medium (Opti-MEM, Invitrogen) with two mammalian expression plasmids, one containing the DNA sequence coding for the ligand binding domains of either PPARα, γ or 6 fused to the yeast GAL4 DNA binding domain and the other containing the promoter sequence of the yeast GAL4 (UAS) fused to the firefly luciferase cDNA reporter. The next day, the medium was changed to DMEM/F12 medium supplemented with 5% charcoal treated serum (Hyclone) and glutamine. After 6 hrs the cells were trypsinized and seeded at a density of 50,000 cells/well into 96 well plates and incubated overnight as above. The cells were then treated with test compounds or vehicle and incubated for 18-24 hrs as above. Luciferase reporter activity was measured using the Steady-Glo Luciferase Assay Kit from Promega. DMRIE-C Reagent was purchased from GIBCO Cat. No. 10459-014. OPTI-MEM I Reduced Serum Medium was purchased from GIBCO (Cat. No. 31985). Steady-Glo Luciferase Assay Kit was purchased from Promega (Part# E254B).
(§3) A variety of example compounds have been made and tested, with a range of in vitro results. […]
A general note: In a reporter assay the amount or activity of a reporter protein is the signal.

Assay [2] addresses T2, PPAR gamma (Homo sapiens, UniProt P37231).
T2 construct: expressed in transfected cells; host or cells: HEK293
T2 sequence (P37231 238-503 limits assumed): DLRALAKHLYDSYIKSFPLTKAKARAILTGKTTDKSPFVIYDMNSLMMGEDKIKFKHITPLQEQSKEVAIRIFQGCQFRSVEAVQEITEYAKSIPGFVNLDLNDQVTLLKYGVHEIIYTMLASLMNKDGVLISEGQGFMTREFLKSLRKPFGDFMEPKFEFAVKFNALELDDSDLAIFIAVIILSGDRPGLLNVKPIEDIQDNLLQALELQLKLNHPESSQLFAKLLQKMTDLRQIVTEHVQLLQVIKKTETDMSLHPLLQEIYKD
The assay can be described thus: Transfection assay for PPAR receptors (GAL4-LBD luciferase reporter in HEK293 cells), PPAR gamma. As to the method:
as §1, §2, §3

The target of assay [3] is T3, PPAR alpha (Homo sapiens, UniProt Q07869).
T3 construct: expressed in transfected cells; host or cells: HEK293
T3 sequence (Q07869 239-466 limits assumed): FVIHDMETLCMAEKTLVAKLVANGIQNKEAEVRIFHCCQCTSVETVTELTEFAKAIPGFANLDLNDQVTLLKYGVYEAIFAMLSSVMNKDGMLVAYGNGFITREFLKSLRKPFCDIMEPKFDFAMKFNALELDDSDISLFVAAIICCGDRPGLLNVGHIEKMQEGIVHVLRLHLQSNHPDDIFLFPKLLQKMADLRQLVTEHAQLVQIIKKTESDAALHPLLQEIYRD
Kind of assay: Transfection assay for PPAR receptors (GAL4-LBD luciferase reporter in HEK293 cells), PPAR alpha. On the procedure: as §1, §2, §3

In the case of `C=C(COc1ccc(OC(F)(F)F)cc1)CSc1ccc(OC(C)(C)C(=O)O)c(C)c1` [Compound 2], the values for the EC50 in assay [1], in assay [2] and in assay [3] were 41.5 nM, 899 nM and 900 nM, respectively.

The record behind these values is patent publication US7875744B2, “4-((phenoxyalkyl)thio)-phenoxyacetic acids and analogs” (Janssen Pharmaceutica NV, priority 2004, dated 2011).
